Measured values reported in the supplement of paper PMC8960247.
Counter-ions that a name gives are not always drawn. ± gives the standard error.

Assays:
621-102 (TSC2-deficient) = experiment: relative viability vs DMSO; higher = less cytotoxic; settings: serum: 10% FBS, 72 h
621-103 (TSC2-rescued) = experiment: as above; settings: serum: 10% FBS, 72 h
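Further: immortalized renal angiomyolipoma cells stably carrying empty vector or TSC2, dosed in 384-well plates in DMEM, viability normalized to vehicle-treated wells within each plate.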

| Structure (SMILES) | relative viability (621-102 (TSC2-deficient); 0.0001 µM) | relative viability (621-102 (TSC2-deficient); 0.001 µM) | relative viability (621-102 (TSC2-deficient); 0.01 µM) | relative viability (621-102 (TSC2-deficient); 0.1 µM) | relative viability (621-102 (TSC2-deficient); 1 µM) | relative viability (621-102 (TSC2-deficient); 10 µM) | relative viability (621-103 (TSC2-rescued); 0.0001 µM) | relative viability (621-103 (TSC2-rescued); 0.001 µM) | relative viability (621-103 (TSC2-rescued); 0.01 µM) | relative viability (621-103 (TSC2-rescued); 0.1 µM) | relative viability (621-103 (TSC2-rescued); 1 µM) | relative viability (621-103 (TSC2-rescued); 10 µM) |
| --- | --- | --- | --- | --- | --- | --- | --- | --- | --- | --- | --- | --- |
| CN1CC(=O)N2[C@H](c3ccc4c(c3)OCO4)c3[nH]c4ccccc4c3C[C@@H]2C1=O [Tadalafil (Cialis)] | 107.45 ± 0.0089% | 97.8 ± 3.3% | 107 ± 4.8% | 101 ± 2% | 94.3 ± 2.4% | 107.7 ± 0.44% | 91.2 ± 1.9% | 92.87 ± 0.31% | 102.7 ± 0.92% | 92.11 ± 0.35% | 96.51 ± 0.38% | 101 ± 2% |
| CC/C(=C(\c1ccccc1)c1ccc(OCCN(C)C)cc1)c1ccccc1 [Tamoxifen Citrate] | 102.7 ± 0.75% | 98.8 ± 1.8% | 111 ± 2.6% | 98.76 ± 0.6% | 100.8 ± 1% | 80.9 ± 5.2% | 101 ± 3.6% | 102 ± 3.1% | 104 ± 5.2% | 101 ± 2.4% | 107 ± 3.5% | 48.1 ± 2.6% |
| CCOc1ccccc1OCCN[C@H](C)Cc1ccc(OC)c(S(N)(=O)=O)c1 [Tamsulosin HCl] | 104 ± 3.8% | 99.7 ± 2.3% | 99.5 ± 2.2% | 102 ± 5% | 97 ± 3.9% | 98.4 ± 4% | 107 ± 5.6% | 104 ± 4.7% | 105 ± 2% | 103 ± 2.4% | 96.4 ± 7% | 98.4 ± 2.6% |
| COc1cc2c(N3CCN(C(=O)Nc4ccc(OC(C)C)cc4)CC3)ncnc2cc1OCCCN1CCCCC1 [Tandutinib (MLN518)] | 107 ± 3.1% | 97.9 ± 4.1% | 99.7 ± 0.23% | 96.6 ± 3% | 98.2 ± 3.4% | 80 ± 2.4% | 99.4 ± 1.1% | 99.87 ± 0.96% | 101 ± 2.1% | 101 ± 1.9% | 99.31 ± 0.29% | 83.4 ± 1.2% |
| CNC(=O)c1cc(COc2nnc(Nc3ccc(Cl)cc3)c3ccoc23)ccn1 [Telatinib (BAY57-9352)] | 94.64 ± 0.47% | 95.1 ± 4.9% | 83.7 ± 2.7% | 94.8 ± 1.5% | 84.3 ± 1.3% | 48.4 ± 3.9% | 114 ± 2.4% | 103.1 ± 0.34% | 100 ± 2.4% | 108 ± 2% | 104 ± 1.8% | 55.8 ± 4.5% |
| CCCc1nc2c(C)cc(-c3nc4ccccc4n3C)cc2n1Cc1ccc(-c2ccccc2C(=O)O)cc1 [Telmisartan] | 104 ± 2.5% | 104 ± 1.6% | 103 ± 2.6% | 105 ± 1.2% | 112 ± 6.6% | 113.2 ± 0.47% | 101 ± 2.7% | 97.8 ± 4.9% | 95.37 ± 0.79% | 103.34 ± 0.025% | 101 ± 4.2% | 107 ± 2.6% |
| C[C@H](Cn1cnc2c(N)ncnc21)OCP(=O)(O)O [Tenofovir] | 66.9 ± 0.97% | 73.2 ± 1.9% | 75.6 ± 11% | 71.7 ± 5% | 70.8 ± 6.7% | 60.2 ± 5.8% | 102 ± 5.5% | 102 ± 1.9% | 103 ± 5.3% | 109 ± 4.2% | 94 ± 7.9% | 92.6 ± 4.3% |
| CN(C/C=C/C#CC(C)(C)C)Cc1cccc2ccccc12 [Terbinafine HCl] | 96.9 ± 2.1% | 97 ± 1.5% | 92 ± 0.96% | 94.1 ± 2.5% | 101 ± 3% | 91.3 ± 3.5% | 101 ± 3.3% | 99.3 ± 5.4% | 104 ± 2.1% | 101 ± 1.3% | 101 ± 1.3% | 97.22 ± 0.58% |
| CCC(=O)O[C@H]1CC[C@H]2[C@@H]3CCC4=CC(=O)CC[C@]4(C)[C@H]3CC[C@]12C [Testosterone propionate (Agovirin)] | 104 ± 2.2% | 104 ± 1.2% | 98.7 ± 3.7% | 104 ± 1.1% | 104 ± 2.2% | 103 ± 4.2% | 109 ± 3.1% | 105 ± 1.9% | 104 ± 1.2% | 98.7 ± 2.8% | 102.1 ± 0.64% | 87.6 ± 1.6% |
| CCCCNc1ccc(C(=O)OCCN(C)C)cc1 [Tetracaine HCl] | 113 ± 2.6% | 105 ± 2.3% | 100 ± 3.7% | 102 ± 3.7% | 102 ± 3.2% | 105 ± 1.1% | 72.9 ± 4.8% | 91.42 ± 0.14% | 90.6 ± 5.6% | 103 ± 6.7% | 78.5 ± 6.8% | 74.1 ± 2.6% |
| C[N+]1(C)[C@@H]2C[C@@H](OC(=O)C(O)(c3cccs3)c3cccs3)C[C@H]1[C@@H]1O[C@@H]12 [Tiotropium Bromide hydrate] | 119 ± 6% | 110 ± 3.6% | 116.3 ± 0.16% | 112.5 ± 0.9% | 116 ± 1.3% | 117.1 ± 0.39% | 77.6 ± 0.97% | 97.55 ± 0.64% | 105.9 ± 0.43% | 100 ± 2.9% | 103 ± 3.4% | 103 ± 2.6% |
| C[N+]1(C)[C@@H]2C[C@@H](OC(=O)C(O)(c3cccs3)c3cccs3)C[C@H]1[C@@H]1O[C@@H]12 [Tiotropium] | 119 ± 3.2% | 114 ± 4.8% | 115 ± 4.8% | 111 ± 2.6% | 117 ± 4.4% | 112.5 ± 1.1% | 82.2 ± 1.7% | 96 ± 3.8% | 103.3 ± 0.58% | 96.8 ± 4.6% | 102.87 ± 0.086% | 100.4 ± 0.9% |
| O=c1oc2cc(O)ccc2s1 [Tioxolone] | 103 ± 7.6% | 105.7 ± 0.97% | 105 ± 4% | 94.8 ± 1.4% | 104 ± 2.6% | 99.31 ± 0.92% | 71.1 ± 7.9% | 80 ± 6.3% | 75.42 ± 0.21% | 80.9 ± 4.5% | 71.5 ± 8.5% | 60.9 ± 5% |
| O=c1n(CCCN2CCN(c3cccc(Cl)c3)CC2)nc2ccccn12 [Trazodone HCl] | 103 ± 1.2% | 103 ± 1.8% | 105 ± 2.1% | 99.8 ± 4.6% | 107 ± 1.8% | 103 ± 4.7% | 77.1 ± 6.5% | 84.3 ± 2.8% | 84.8 ± 4% | 86.6 ± 3.6% | 68.2 ± 3.2% | 63.7 ± 7.5% |
| CC(/C=C/C(=O)NO)=C\[C@@H](C)C(=O)c1ccc(N(C)C)cc1 [Trichostatin A] | 113.6 ± 0.35% | 117 ± 1.7% | 117.6 ± 0.42% | 104.3 ± 0.83% | 110 ± 1.2% | 74.9 ± 3.8% | 100.8 ± 0.21% | 101 ± 1.4% | 98.31 ± 0.47% | 99.71 ± 0.22% | 96.9 ± 1.4% | 44.8 ± 2.1% |
| C[C@]12CC[C@H]3[C@@H](CC[C@@]45O[C@@H]4C(O)=C(C#N)C[C@]35C)[C@@H]1CC[C@@H]2O [Trilostane] | 104 ± 4.1% | 94 ± 6% | 93.7 ± 0.94% | 101 ± 2.1% | 98.3 ± 5.8% | 99.2 ± 5% | 102 ± 1.8% | 106.6 ± 0.25% | 106.2 ± 0.28% | 101 ± 2.7% | 102.8 ± 0.34% | 100 ± 1.9% |
| CN1[C@@H]2CC[C@H]1C[C@@H](OC(=O)c1c[nH]c3ccccc13)C2 [Tropisetron HCl] | 82.2 ± 3.4% | 94 ± 3.9% | 99.6 ± 3.9% | 106 ± 2% | 99.47 ± 0.15% | 93.3 ± 1.3% | 89.7 ± 3% | 96.7 ± 2.6% | 102 ± 2.4% | 95.48 ± 0.32% | 106.6 ± 0.86% | 84.7 ± 1.7% |
| O=C(O[C@H]1C[C@H]2CC[C@@H](C1)[N+]21CCCC1)C(O)(c1ccccc1)c1ccccc1 [Trospium chloride (Sanctura)] | 116 ± 2.6% | 99.2 ± 1.8% | 110 ± 5.9% | 95.4 ± 6.1% | 112 ± 5% | 110 ± 3.5% | 82.71 ± 0.81% | 91.5 ± 2.9% | 93.15 ± 0.86% | 102 ± 3.1% | 98.6 ± 5.3% | 92.1 ± 4.1% |
